We go through two molecules from ChEMBL document CHEMBL5579808, “Development of 1,5-diarylpyrazoles as EGFR/JNK-2 dual inhibitors: design, synthesis, moleecular docking, and bioactivity evaluation” (Bioorg Med Chem Lett, 2024).

Experiment [1] deals with HeLa. Put plainly: Growth inhibition of human HeLa cells at 100 uM by WST-8 assay relative to control. To be noted: read-out: GI. Type of experiment: functional.
Experiment [2] deals with DLD-1. Put plainly: Growth inhibition of human DLD-1 cells at 100 uM by WST-8 assay relative to control. Format: functional. Particulars: read-out: GI.
Experiment [3] relates to K562. Briefly: Growth inhibition of human K562 cells at 100 uM by WST-8 assay relative to control. Type of experiment: functional. To be noted: read-out: GI. Background: Tetrazolium assays rely on reduction of a dye to a coloured formazan, in cell work by metabolically active cells.
Experiment [4] is described as follows: Growth inhibition of human SUIT-2 cells at 100 uM by WST-8 assay relative to control. Type of experiment: functional. To be noted: read-out: GI.
In experiment [5] the test system is HepG2. Briefly: Growth inhibition of human HepG2 cells at 100 uM by WST-8 assay relative to control. Type of experiment: functional. Particulars: read-out: GI.
For experiment [6], the system named is DLD-1. Put plainly: Antiproliferative activity against human DLD-1 cells by WST-8 assay. Format: functional, cell-based.
Experiment [7] concerns HeLa. Put plainly: Antiproliferative activity against human HeLa cells by WST-8 assay. Format: functional, cell-based.
The subject of experiment [8] is K562. Put plainly: Antiproliferative activity against human K562 cells by WST-8 assay. Type of experiment: functional, cell-based.
Experiment [9] can be described thus: Antiproliferative activity against human SUIT-2 cells by WST-8 assay. Format: functional, cell-based.
Experiment [10] has as its system HepG2. Briefly: Antiproliferative activity against human HepG2 cells by WST-8 assay. Format: functional, cell-based.
Experiment [11] deals with HeLa. Briefly: Induction of cell cycle arrest at G1 phase in human HeLa cells at IC50 incubated for 24 hrs by PI staining based flow cytometry (reference value: 68 %). Type of experiment: functional. (Flow cytometry measures light scatter and fluorescence of single cells or particles in a stream.)
Experiment [12] concerns HeLa. Put plainly: Induction of cell cycle arrest at S phase in human HeLa cells at IC50 incubated for 24 hrs by PI staining based flow cytometry (reference value: 8 %). Format: functional.
The subject of experiment [13] is HeLa. Briefly: Induction of cell cycle arrest at G2 phase in human HeLa cells at IC50 incubated for 24 hrs by PI staining based flow cytometry (reference value: 7 %). Format: functional.
Experiment [14] relates to HeLa. Put plainly: Induction of apoptosis in human HeLa cells assessed as total cells at half of IC50 incubated for 24 hrs by Annexin V-FITC/PI staining based flow cytometry (reference value: 1.8 %). Format: functional.
The test system of experiment [15] is HeLa. Put plainly: Induction of apoptosis in human HeLa cells assessed as early apoptotic cells at half of IC50 incubated for 24 hrs by Annexin V-FITC/PI staining based flow cytometry (reference value: 0 %). Type of experiment: functional.
Experiment [16] has as its system HeLa. Put plainly: Induction of apoptosis in human HeLa cells assessed as late apoptotic cells at half of IC50 incubated for 24 hrs by Annexin V-FITC/PI staining based flow cytometry (reference value: 0 %). Format: functional.
Experiment [17] concerns HeLa. Put plainly: Induction of apoptosis in human HeLa cells assessed as necrotic cells at half of IC50 incubated for 24 hrs by Annexin V-FITC/PI staining based flow cytometry (reference value: 1.8 %). Type of experiment: functional.
Experiment [18] addresses Epidermal growth factor receptor (Mus musculus, UniProt Q01279). Put plainly: Inhibition of recombinant mouse EGFR by ELISA. In general terms: An ELISA detects its analyte on a solid surface through an enzyme-linked reagent.
In experiment [19] the target is Mitogen-activated protein kinase 9 (Homo sapiens, UniProt P45984). Briefly: Inhibition of JNK2 (unknown origin) incubated for 90 mins by ELISA.
Chain of Mitogen-activated protein kinase 9 (P45984 whole entry): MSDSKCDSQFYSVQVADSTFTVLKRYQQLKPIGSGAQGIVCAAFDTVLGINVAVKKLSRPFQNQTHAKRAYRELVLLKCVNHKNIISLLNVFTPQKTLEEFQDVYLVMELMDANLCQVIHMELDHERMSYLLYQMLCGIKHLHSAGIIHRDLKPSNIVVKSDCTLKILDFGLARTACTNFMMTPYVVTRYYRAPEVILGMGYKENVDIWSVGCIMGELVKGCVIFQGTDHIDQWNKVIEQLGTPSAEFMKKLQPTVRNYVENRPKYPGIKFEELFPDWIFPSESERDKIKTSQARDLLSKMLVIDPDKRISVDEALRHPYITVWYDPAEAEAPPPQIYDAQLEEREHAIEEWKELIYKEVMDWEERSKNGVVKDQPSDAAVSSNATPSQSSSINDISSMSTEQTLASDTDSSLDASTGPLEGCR
In experiment [20] the test system is HeLa. Briefly: Induction of cell cycle arrest at G1 phase in human HeLa cells at IC50 incubated for 48 hrs by PI staining based flow cytometry (reference value: 68 %). Format: functional.
In experiment [21] the test system is HeLa. Briefly: Induction of cell cycle arrest at S phase in human HeLa cells at IC50 incubated for 48 hrs by PI staining based flow cytometry (reference value: 8 %). Type of experiment: functional.
Experiment [22] concerns HeLa. Briefly: Induction of cell cycle arrest at G2 phase in human HeLa cells at IC50 incubated for 48 hrs by PI staining based flow cytometry (reference value: 7 %). Type of experiment: functional.
For experiment [23], the system named is HeLa. Put plainly: Induction of apoptosis in human HeLa cells assessed as total cells at 2 times IC50 incubated for 24 hrs by Annexin V-FITC/PI staining based flow cytometry (reference value: 1.8 %). Format: functional.
In experiment [24] the test system is HeLa. Briefly: Induction of apoptosis in human HeLa cells assessed as early apoptotic cells at 2 times IC50 incubated for 24 hrs by Annexin V-FITC/PI staining based flow cytometry (reference value: 0 %). Type of experiment: functional.
Experiment [25] relates to HeLa. Briefly: Induction of apoptosis in human HeLa cells assessed as late apoptotic cells at 2 times IC50 incubated for 24 hrs by Annexin V-FITC/PI staining based flow cytometry (reference value: 0 %). Type of experiment: functional.
Experiment [26] concerns HeLa. Put plainly: Induction of apoptosis in human HeLa cells assessed as necrotic cells at 2 times IC50 incubated for 24 hrs by Annexin V-FITC/PI staining based flow cytometry (reference value: 1.8 %). Format: functional.

Chain of Epidermal growth factor receptor (Q01279 whole entry): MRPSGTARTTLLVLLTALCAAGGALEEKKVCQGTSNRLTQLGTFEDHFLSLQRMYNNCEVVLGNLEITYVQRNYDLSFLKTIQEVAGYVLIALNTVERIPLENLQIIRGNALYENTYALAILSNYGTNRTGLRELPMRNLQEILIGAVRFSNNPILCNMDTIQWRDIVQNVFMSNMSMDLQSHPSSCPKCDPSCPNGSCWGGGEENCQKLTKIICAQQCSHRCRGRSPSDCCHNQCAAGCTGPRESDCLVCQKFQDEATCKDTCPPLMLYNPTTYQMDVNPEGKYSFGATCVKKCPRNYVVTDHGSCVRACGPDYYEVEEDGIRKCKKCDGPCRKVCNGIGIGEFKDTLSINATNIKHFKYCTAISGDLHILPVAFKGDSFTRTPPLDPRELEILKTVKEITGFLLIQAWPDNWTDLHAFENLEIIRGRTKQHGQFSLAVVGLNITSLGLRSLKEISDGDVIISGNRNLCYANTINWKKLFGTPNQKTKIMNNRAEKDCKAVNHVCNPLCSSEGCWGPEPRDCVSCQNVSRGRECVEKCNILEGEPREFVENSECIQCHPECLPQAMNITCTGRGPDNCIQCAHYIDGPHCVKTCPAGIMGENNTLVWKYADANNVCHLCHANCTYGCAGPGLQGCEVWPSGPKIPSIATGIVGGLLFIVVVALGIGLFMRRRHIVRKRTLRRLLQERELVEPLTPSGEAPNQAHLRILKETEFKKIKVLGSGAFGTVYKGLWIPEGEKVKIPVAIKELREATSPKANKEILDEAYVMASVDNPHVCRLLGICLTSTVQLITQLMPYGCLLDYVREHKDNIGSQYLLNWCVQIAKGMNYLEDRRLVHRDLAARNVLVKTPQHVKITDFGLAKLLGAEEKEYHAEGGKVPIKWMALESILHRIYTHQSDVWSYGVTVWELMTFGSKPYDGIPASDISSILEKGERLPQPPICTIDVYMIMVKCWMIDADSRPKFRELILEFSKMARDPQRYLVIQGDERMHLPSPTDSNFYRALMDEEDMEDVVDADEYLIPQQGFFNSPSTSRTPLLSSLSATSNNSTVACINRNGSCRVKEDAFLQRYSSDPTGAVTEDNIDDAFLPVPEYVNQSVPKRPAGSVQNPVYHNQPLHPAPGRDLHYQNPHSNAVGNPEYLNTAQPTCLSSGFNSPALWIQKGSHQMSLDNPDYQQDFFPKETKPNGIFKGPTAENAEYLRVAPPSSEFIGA

On to `COc1cc(C=O)ccc1OC(=O)c1cc(-c2ccc(C)cc2)n(-c2ccc(S(N)(=O)=O)cc2)n1`, for which the inhibition of growth at 100 µM in the experiment with HeLa [1] was 95%; in the experiment on DLD-1 [2] it was 100%; with K562 [3] it was 95%; in experiment [4], 87%; in the experiment with HepG2 [5] it was 101%. Also, the IC50 stood at 17 µM with DLD-1 [6]; 14 µM with HeLa [7]; 7.6 µM in the experiment with K562 [8]; 17 µM in [9]; 2.7 µM with HepG2 [10]; 50 µM in [18]. Further, in [19], the IC50 amounted to 2000 nM. Moreover, the Activity in the experiment with HeLa [11] was 4%; in the experiment on HeLa [12], 83%; in the experiment on HeLa [13], 7%; with HeLa [14], 25%; with HeLa [15] it was 0.4%; with HeLa [16], 19%. Besides, the Activity in the experiment on HeLa [17] was 5.9%.
For `COc1cc(C=O)ccc1OC(=O)c1cc(-c2ccc(C)cc2)n(-c2ccccc2)n1`, the inhibition of growth at 100 µM came to 84% in the experiment on HeLa [1]; 70% with DLD-1 [2]; 79% with K562 [3]; 89% in experiment [4]; 50% with HepG2 [5]. The IC50 with HeLa [7] was found to be 15 µM; in the experiment with K562 [8], 14.8 µM; with HepG2 [10] it was 8.9 µM. Moreover, the Activity in the experiment on HeLa [11] is reported as 64%; in the experiment with HeLa [20], 59%; with HeLa [12] it was 8%; in the experiment with HeLa [21] it was 5%; with HeLa [13], 21%; in the experiment on HeLa [22], 23%. For the same molecule, the Activity was 86% in the experiment with HeLa [23], 5.9% in the experiment with HeLa [24], 48% in the experiment on HeLa [25] and 33% in the experiment with HeLa [26].

As a reminder, the IC50 is the concentration that inhibits the measured activity by half.
